Test results taken from BigSolDB 2.1.

CC1(C)[C@@H](O)CC[C@]2(C)[C@H]3C(=O)C=C4[C@@H]5C[C@@](C)(C(=O)O)CC[C@]5(C)CC[C@@]4(C)[C@]3(C)CC[C@@H]12 showed a solubility (mole fraction) (in 1,4-dioxane, 288.15 K) of 0.0277, a solubility (mole fraction) (in 1,4-dioxane, 293.15 K) of 0.0286 and a solubility (mole fraction) (in 1,4-dioxane, 298.15 K) of 0.0298. It also gave a solubility (mole fraction) (in 1,4-dioxane, 303.15 K) of 0.031, a solubility (mole fraction) (in 1,4-dioxane, 308.15 K) of 0.0323 and a solubility (mole fraction) (in 1,4-dioxane, 313.15 K) of 0.0335. For the same molecule, the solubility (mole fraction) (in 1,4-dioxane, 318.15 K) was 0.0348, the solubility (mole fraction) (in 1,4-dioxane, 323.15 K) was 0.0366 and the solubility (mole fraction) (in DMF, 278.15 K) was 0.0449. For the same molecule, the solubility (mole fraction) (in DMF, 283.15 K) was 0.0478, the solubility (mole fraction) (in DMF, 288.15 K) was 0.051 and the solubility (mole fraction) (in DMF, 293.15 K) was 0.0545. For the same molecule, the solubility (mole fraction) (in DMF, 298.15 K) was 0.058, the solubility (mole fraction) (in DMF, 303.15 K) was 0.0615 and the solubility (mole fraction) (in DMF, 308.15 K) was 0.0654. For the same molecule, the solubility (mole fraction) (in DMF, 313.15 K) was 0.0692, the solubility (mole fraction) (in DMF, 318.15 K) was 0.0733 and the solubility (mole fraction) (in DMF, 323.15 K) was 0.0777. It also gave a solubility (mole fraction) (in ethanol, 278.15 K) of 0.0109, a solubility (mole fraction) (in ethanol, 283.15 K) of 0.0115 and a solubility (mole fraction) (in ethanol, 288.15 K) of 0.0121. For the same molecule, the solubility (mole fraction) (in ethanol, 293.15 K) was 0.0128, the solubility (mole fraction) (in ethanol, 298.15 K) was 0.0134 and the solubility (mole fraction) (in ethanol, 303.15 K) was 0.0141. The solubility (mole fraction) (in ethanol, 308.15 K) was 0.0147, the solubility (mole fraction) (in ethanol, 313.15 K) was 0.0155 and the solubility (mole fraction) (in ethanol, 318.15 K) was 0.0163. The solubility (mole fraction) (in ethanol, 323.15 K) was 0.0172, the solubility (mole fraction) (in isopropanol, 278.15 K) was 0.00911 and the solubility (mole fraction) (in isopropanol, 283.15 K) was 0.00991. It also gave a solubility (mole fraction) (in isopropanol, 288.15 K) of 0.0108, a solubility (mole fraction) (in isopropanol, 293.15 K) of 0.0116 and a solubility (mole fraction) (in isopropanol, 298.15 K) of 0.0124. It also gave a solubility (mole fraction) (in isopropanol, 303.15 K) of 0.0133, a solubility (mole fraction) (in isopropanol, 308.15 K) of 0.0142 and a solubility (mole fraction) (in isopropanol, 313.15 K) of 0.0151. For the same molecule, the solubility (mole fraction) (in isopropanol, 318.15 K) was 0.016, the solubility (mole fraction) (in isopropanol, 323.15 K) was 0.017 and the solubility (mole fraction) (in water, 278.15 K) was 8.02e-08. It also gave a solubility (mole fraction) (in water, 283.15 K) of 9.91e-08, a solubility (mole fraction) (in water, 288.15 K) of 1.22e-07 and a solubility (mole fraction) (in water, 293.15 K) of 1.5e-07. For the same molecule, the solubility (mole fraction) (in water, 298.15 K) was 1.82e-07, the solubility (mole fraction) (in water, 303.15 K) was 2.2e-07 and the solubility (mole fraction) (in water, 308.15 K) was 2.61e-07. The solubility (mole fraction) (in water, 313.15 K) was 3.17e-07, the solubility (mole fraction) (in water, 318.15 K) was 3.76e-07 and the solubility (mole fraction) (in water, 323.15 K) was 4.49e-07.
